# Assay results taken from US5939403A, “Keratan sulfate oligosaccharide fraction and pharmaceutical containing the same” (Seikagaku Corporation, priority 1994, dated 1999).
# Key:
# papain-induced arthritis = test: Papain-induced unilateral arthritis model, intramuscular administration (volume of synovial fluid); assay type: in vivo, Japanese white rabbits (female); conditions: 0.5 mg/kg intramuscular, unilateral model; 10 rabbits per group
# Experimental: The anti-inflammatory effect of the keratan sulfate oligosaccharide with rabbits of the papain-induced arthritis model was examined using the volume of synovial fluid as an indication.
# Seven days after the injection, the blood was drawn from the auricular artery, and plasma containing heparin was separated. After drawing the blood, the rabbits were anatomized and the both knee joint were separated. The articular cavity was washed with 2 ml of saline three times to recover the synovial fluid. The calcium concentrations in the plasma and the recovered synovial fluid were determined, and the volume of synovial fluid was calculated from the following formula.
# Volume of Synovial Fluid (ul/articulation)=Amount of Calcium in Recovered
# Synovial Fluid (μg/articulation)/Concentration of Calcium in Plasma
# Into the articular cavity of left joint of Japanese white rabbits (female) of 3 kg weight, 150 μl of the saline solution of papain (1%) was injected, and the right joint was not treated to prepare the unilateral arthritis model. One day after injecting papain, 150 μl of the PBS solution of the purified keratan sulfate tetrasaccharide (I) (2%, 1%, and 0.5% solution; 1.0 mg/kg, 0.5 mg/kg, and 0.25 mg/kg, respectively) which was prepared in Example 1 was injected into the hip muscle of the left side (hereinafter referred to as "the keratan sulfate tetrasaccharide (I) administered group"). As the control, 150 μl of PBS was injected to the arthritis model instead of the PBS solution of the keratan sulfate tetrasaccharide (I) and hereinafter these rabbits are referred to as "the control group". And the normal rabbits not subjected to the papain injection (hereinafter referred to as "the normal group") were also examined in the same manner hereinafter. Seven days after the injection, the volume of synovial fluid was calculated in the same manner as in (1-1).
# The examination was performed in the same manner as in (1-3) except for using 150 μl of the PBS solution of the purified keratan sulfate tetrasaccharide (I), the keratan sulfate pentasaccharide (II), and the keratan sulfate disaccharide (III) (1% solution; 0.5 mg/kg) which were prepared in Example 1. In the figure, *, **, and *** represent that they have the significant difference with p<0.05, p<0.01, and p<0.001, respectively. And in each group, 10 rabbits were used for the examination.
# allergic conjunctivitis = test: TDI-induced allergic conjunctivitis model, eye dropping; assay type: in vivo, female Hartley guinea pigs; conditions: 6.0 mg/ml eye drop, comparison of oligosaccharides
# Experimental: A variety of the keratan sulfate oligosaccharide was dropped in the eyes of the guinea pigs subjected to the induction of allergic conjunctivitis to examine the effect thereof.
# Toluene diisocyanate (hereinafter referred to as TDI) was diluted with ethyl acetate to a concentration of 10%. To the bilateral vestibule of noses of 10 female Hartley guinea pigs of from about 900 to 1,000 g weight, the 10% TDI (10 μl/animal) obtained above was applied once a day for five days to prepare the TDI sensitization models. The PBS solution of the purified keratan sulfate tetrasaccharide (I) ([…]) which was prepared in Example 1 was dropped in the left eyes of the TDI sensitization models, while PBS was dropped in the right eyes as the control. The dose of dropping was one drop (48+4.6 μl (S.D.)) each from the eye dropper. After 10 minutes, 6.5 μl of 10% TDI was dropped to the both eyes to induce conjunctivitis. After five minutes standing, furthermore, the PBS solution of the keratan sulfate tetrasaccharide (I) ([…]) was dropped in the left eyes, and PBS was dropped in the right eyes. After 15 minutes, observation of the both eyes were carried out. The degree of conjunctivitis was evaluated regarding three items of hyperemia, edema and lacrimation into four grades such as point 0, +1, +2 and +3. In the figure, * represents that it has the significant difference with p<0.05 (wherein "p" means a level of significance by the .chi.^2 test).
# The PBS solution of the purified keratan sulfate disaccharide (III), the keratan sulfate tetrasaccharide (I), and the keratan sulfate pentasaccharide (II) (6.0 mg/ml, respectively)which were prepared in Example 1 described above as the test substances were dropped, respectively, in the left eyes of the TDI sensitization models of 10 animals a group each which were prepared in the same manner as in (1) described above, and PBS was dropped in the right eyes as the control. The degree of conjunctivitis was evaluated in the same manner as in (1) described above. In the figure, * represents that it has the significant difference with p<0.05 (wherein "p" means a level of significance by the .chi.^2 test).
# The PBS solution containing the purified keratan sulfate tetrasaccharide (I) which was prepared in Example 1 described above, at varieties of concentrations (6 mg/ml, 3 mg/ml, 1.5 mg/ml or 0.75 mg/ml) as the test substance, were dropped, respectively, in the left eyes of the TDI sensitization models of 10 animals a group each which were prepared in the same manner as in (1) described above, and PBS was dropped in the right eyes as the control. The degree of conjunctivitis was evaluated in the same manner as in (1) described above. In the figure, * represents that it has the significant differnce with p<0.05 (wherein "p" means a level of significance by the .chi.^2 test).
# [1] = test system: neutrophile of guinea pig; test: Inhibition of active oxygen (O2^-) generation in FMLP-stimulated neutrophile; assay type: cell-based, female Hartley guinea pigs
# Experimental: To female Hartley guinea pigs of five weeks old (purchased from Japan SLC), 20 ml of the 0.2% aqueous solution of glycogen (Type II; Oyster; Sigma) dissolved in saline which was previously sterilized with autoclave, was intraperitoneally administered. The guinea pigs were sacrificed by bleeding 16 hours after the administration, and 20 ml of the saline containing heparin at a concentration of 10 U/ml was intraperitoneally injected to recover the peritoneal exudate. Hereinafter all the operations were carried out under ice-water cooling condition except for incubation. The recovered exudate was centrifuged at 1,000 rpm for 10 minutes, the precipitate obtained was hemolyzed with purified water for 30 seconds, and returned into isotonicity with the Hanks' solution at double the concentration (not containing phenol red; Nissui Seiyaku), and further it was centrifuged at 1,000 rpm for 10 minutes. The precipitate obtained was suspended in the Hanks' solution and centrifuged and the operations were repeated once more to give the neutrophile.
# The collected neutrophile of the guinea pigs was suspended in the Hanks' solution, the number of leukocyte in the suspension was determined by a cytometer (System K-2000; Toa Iyo Denshi Co.), and the suspension diluted with the Hanks' solution to 2×10^6 cells/ml was used in the determination as the cell suspension. After mixing 1 ml of the cell suspension and 10 μl of the purified keratan sulfate oligosaccharide (keratan sulfate tetrasaccharide (I), the keratan sulfate pentasaccharide (II), or the keratan sulfate disaccharide (III)) prepared in Example 1 described above, and the mixture was preincubated at 37° C. for an hour. […]
# The supernatant obtained by the centrifugation was separated and the absorbance thereof was determined at 550 nm to estimate the quantity of reducing cytochrome c per 2×10^6 cells after the 10 minutes incubation. The quantity of reducing cytochrome c increases with the generation of active oxygen (O2^-). […]
substance,measurement,setting,value
NeuAc~Galβ1-4GlcNAc(6S)β1-3Gal(6S)β1-4GlcNAc(6S) [keratan sulfate pentasaccharide (II)],"quantity of synovial fluid (FIG. 5, result in words)",papain-induced arthritis,significantly less than that in the control group
same,"degree of conjunctivitis: hyperemia, edema and lacrimation (FIG. 12)",allergic conjunctivitis,tended to show inhibition in all the items
same,inhibitory function for generation of active oxygen (O2^-) (FIG. 10),[1],slightly observed
